Results reported in patent publication US8901120B2, “Substituted N-phenylpyrimidin-2-amine analogs as inhibitors of the Axl kinase” (University of Utah Research Foundation, priority 2011, dated 2014).

Columns and labels:
JAK family of kinases = assay: Kinase profiling, JAK family; assay type: biochemical; conditions: 200 nM test compound, ATP at Km apparent, FIG. 9
Procedure: (§1) The specificity of kinase inhibition was assessed with a representative compound, 2-((5-chloro-2-((4-((4-methylpiperazin-1-yl)methyl)phenyl)amino)pyrimidin-4-yl)amino)-N,N-dimethylbenzenesulfonamide, by determining the activity of this test compound against a panel of protein kinases. Kinase profiling was performed against a focus panel of kinases relevant to PDK1 signaling and other known oncogenic kinases. The panel comprised 75 distinct protein kinases, and data are shown for a subset of 39 kineases (see FIG. 9). […] The results from this screen confirmed good activity against Axl and the related members of the TAM family of kinases.

[1] = tested on: phosphorylated Akt (Ser473); assay: GAS6-Axl signalling assay, phosphorylated Akt; assay type: cell-based; conditions: Homo sapiens; PSN-1 and PL45 cells, in the presence of Gas6, FIG. 8A; read-out: IC50, inhibition of phosphorylated Akt levels
Procedure: (§2) Cell lines were seeded in 1 ml of the appropriate growth media with 10% FBS into 6-well plates (8×10^5 cells/well) and incubated overnight at 37° C. and 5% CO2. The following day, serum-containing growth media was replaced by serum-free media and incubated for 4 hr, and then test compounds were added to the cells at desired concentrations and incubated for an additional 2 hr. To stimulate Axl signaling, Gas6 was added to each well to a concentration of 3 μg/ml and incubated for 10 min. The cells were lysed immediately and the lysates used in a multiplex ELISA kit (Meso Scale Discovery, Gaithersburg, Md.) to quantitate the phosphorylated AKT (at position Ser473′ “pAkt”) or phosphorylated Axl (“pAxl”).
To further explore the activity of a representative compound, 2-((5-chloro-2-((4-((4-methylpiperazin-1-yl)methyl)phenyl)amino)pyrimidin-4-yl)amino)-N,N-dimethylbenzenesulfonamide, of inhibiting Axl in a cell line system, the effect of the test compound on Akt phosphorylation (at the Ser473 position) was determined. The effect on Akt phosphorylation was assessed in two cell-lines (see FIG. 8A): PSN-1 and PL45. The overall method was as described above. Briefly, the cells were treated as indicated and lysates from these treatments were analyzed for phosphorylated Akt (Ser473) as described above.

Aurora family of kinases = assay: Kinase profiling, Aurora family; assay type: biochemical; conditions: 200 nM test compound, ATP at Km apparent, FIG. 9
Procedure: as §1

[2] = tested on: phosphorylated Axl (pAxl); assay: GAS6-Axl signalling assay, autophosphorylation of Axl; assay type: cell-based, Human; conditions: pancreatic cancer cell lines, GAS6 stimulation, FIG. 8B
Procedure: as §2

[3] = tested on: sAxl in PL45 and PSN-1 cells; assay: Release of sAxl into cell culture media (ELISA); assay type: cell-based, Human; conditions: PL45 and PSN-1, serum-free, 24 hours, vs vehicle, FIG. 11
Procedure: Cell lines were plated and incubated overnight as described above. The following day the media was changed to serum-free and the cells were treated as indicated as indicated. After 24 hours, the media from the treatments were analyzed for sAxl (R&D Systems, Minneapolis, Minn.).
The proteolytic processing of the extracellular domain of the Axl receptor is a known event downstream of Axl activation and results in the release of soluble Axl (sAxl) into the cell culture media (in vitro) or into the blood stream (in vivo).

[4] = Pharmacokinetics after oral dosing; assay type: in vivo; conditions: mouse, mice, 50 mg/kg orally, plasma
Procedure: Mice were dosed orally with 50 mg/kg of the title compound. Blood was collected at the indicated time points (see FIG. 16).

[5] = tested on: Axl and the related members of the TAM family of kinases; assay: Kinase profiling, Axl and TAM family; assay type: biochemical; conditions: 200 nM test compound, ATP at Km apparent, FIG. 9
Procedure: as §1

pancreatic cancer cells = assay: Cell migration assay (collagen I Platypus plates); assay type: cell-based; conditions: 18 hours migration, with Gas6, FIG. 10
Procedure: In this system, a gel prevents attachment of cells in a circle. The gel dissolves by exposure to the media, allowing cells to migrate into the open area. Cells migrated for 18 hours before fixation and staining. The extent of cell migration was determined by measuring the open surface in the inner circle of the well.

PSN-1 cells = assay: Tumor xenograft animal model; assay type: in vivo, mouse; conditions: PSN-1 xenograft, 50 mg/kg oral gavage daily (M-F)
Procedure: The in vivo activity of the foregoing compound was assessed in a tumor xenograft model in mouse. PSN-1 cells were cultured as described above and harvested. Cells (2 to 5×10^6 in 100 μl culture media) were implanted subcutaneously in the right hind flank of athymic nu/nu nude mice (5 to 6 weeks old, 18-22 g). Following implantation, the tumors are allowed to grow to 100 mm^3 before the animals are randomized into treatment groups (vehicle and test compound). Day 1 of study corresponds to the day that the animals receive their first dose of test compound (2-((5-chloro-2-((4-((4-methylpiperazin-1-yl)methyl)phenyl)amino)pyrimidin-4-yl)amino)-N,N-dimethylbenzenesulfonamide). The vehicle for this study was 5% EtOH, 45% PEG 400, and 50% water, and animals were dosed with either vehicle or test compound dissolved in this vehicle by oral gavage. The dose level was 50 mg/kg and dosing frequency was daily (M-F) with the test compound with recovery on the weekend.
The test compound was efficacious in limiting tumor growth, achieving about a 50% reduction in tumor volume at this dose level during this dosing period (FIG. 15).

activity against JAK family kinases in kinase profiling (JAK family of kinases): significant activity
IC50 [1]: ~300 nM
activity against Aurora family kinases in kinase profiling (Aurora family of kinases): significant activity
AUC(0-t) [4]: 507 ng·h/mL
Cmax [4]: 604 ng/mL
Tmax [4]: 15 min
half-life [4]: 66 min
activity against Axl and TAM family kinases in kinase profiling [5]: good activity
Structure (SMILES): CN1CCN(Cc2ccc(Nc3ncc(Cl)c(Nc4ccccc4S(=O)(=O)N(C)C)n3)cc2)CC1 [2-((5-chloro-2-((4-((4-methylpiperazin-1-yl)methyl)phenyl)amino)pyrimidin-4-yl)amino)-N,N-dimethylbenzenesulfonamide]
inhibition of autophosphorylation of Axl [2]: dramatically inhibited
reduction in sAxl levels in conditioned media [3]: significant dose-dependent reductions
inhibition of Gas6-induced migration and invasion (pancreatic cancer cells): inhibited
impact on body weight (PSN-1 cells; FIG. 14): no apparent impact
reduction in tumor volume (PSN-1 cells; FIG. 15): ~50%
